# Assay results as given in patent US20210332024A1, “MODULATORS OF PIN1 ACTIVITY AND USES THEREOF” (Yeda Research and Development Co. Ltd., priority 2019, published 2021).
# Tests used:
# catalytic domain of Pin1 = target: T1, catalytic domain of Pin1 (Homo sapiens, UniProt Q13526); assay: Intact protein LC/MS labeling of Pin1; format: binding
# T1 construct: The purified catalytic domain of Pin1 was incubated with the fragment library
# Method: 993 compounds were transferred to a 384-well plate working copy by combining 0.5 μl of 20 mM stock solution of four or five compounds per well. The catalytic domain of Pin1 (2 μM) in 20 mM Tris, 75 mM NaCl, pH 7.5 was incubated with 200 μM for each compound and moderately shaken for 24 hours at 4° C. The reaction was stopped by the addition of formic acid to 0.4% (v/v) final concentration.
# Liquid chromatography/mass spectroscopy runs were performed on an Acquity™ UPLC® H-class system (Waters) in positive ion mode using electrospray ionization (ESI). UPLC separation was performed on a C4 column (300 Å, 1.7 μM, […]). The column was held at 40° C., and the autosampler at 10° C. Mobile solution A was 0.1% formic acid in water and mobile phase B was 0.1% formic acid in acetonitrile. Run flow was 0.4 ml/minute; and a gradient of 20% B for 2 minutes, increasing linearly to 60% B for 3 minutes, holding at 60% B for 1.5 minutes, changing to 0% B in 0.1 minute and holding at 0% for 1.4 minutes, was used. Desolvation temperature was 500° C. with a flow rate of 1000 liters/hour. The capillary voltage was 0.69 kV and cone voltage 46 V. Raw data was processed using OpenLynx™ software and deconvoluted using the MaxEnt tool. Labeling assignment was performed as described in Resnick et al. [J Am Chem Soc 2019, 141:8951-8968].
# For the screening 2 μl of each of the 448 click products as 50 μM DMSO stocks were transferred into a 384-well plate working plate. 48 μl of catalytic domain of Pin1 (2 μM) in 20 mM Tris (pH 7.5) with 75 mM NaCl were added and moderately shaken and incubated for 15 minutes at room temperature. The reaction was stopped by the addition of formic acid to 0.4% (v/v) final concentration (20 μl). The mixtures were analyzed by liquid chromatography/mass spectroscopy analogously to the electrophile library incubations described herein. Hits were retrospectively analyzed by liquid chromatography/mass spectroscopy (LC-MS) to ensure reaction completion.
# For each measured well, processed peaks were searched to match the mass of unlabeled protein or common small adducts of the unlabeled protein, which were found in the control sample or labeled protein. Labeling percentage for a compound was determined as the labeling of a specific compound divided by the overall detected protein species. Peaks whose mass could not be assigned were discarded from the overall labeling calculation. Data was analyzed using a python script for processing the MaxEnt-deconvoluted spectra. Peaks were normalized from ion counts to percentages, where the highest peak is defined as 100%. The unlabeled protein mass is deduced from a reference well that contains just the protein.
# The purified catalytic domain of Pin1 was incubated with the fragment library (2 μM protein, 200 μM compound; 24 hours at 4° C.), followed by intact protein liquid chromatography/mass-spectrometry (LC/MS) to identify and quantify compound labeling. FIG. 1 depicts an example of a compound identified in this manner.
# Based on the docking predictions, a total of 26 compounds that featured a range of small or bulky aliphatic, arylic, biphenylic or heterocyclic side-chains (structures depicted in FIG. 5), were synthesized or purchased. In order to identify potent binders, the irreversible labeling efficiency of these second-generation compounds was assessed alongside the original screening hits under more stringent conditions, with a 1:1 ratio of protein to compound (2 μM compound; 1 hour at room temperature).
# For further optimization of the lipophilic moiety, an alkyne side chain-bearing analog was prepared, which was derivatized with 448 different azides using copper-catalyzed azide-alkyne cycloaddition (CuAAC).
# [1] = Thiol reactivity assay (DTNB); format: physicochemical; conditions: 200 μM compound, pH 7.4, 37° C.
# Method: 50 μM DTNB (dithionitrobenzoic acid) was incubated with 200 μM TCEP (tris(2-carboxytehyl)phosphine) in 20 mM sodium phosphate buffer (pH 7.4) with 150 mM NaCl, for 5 minutes at room temperature, in order to obtain TNB^2− (thionitrobenzoate dianion). 200 μM compounds were subsequently added to the TNB^2−, followed by immediate UV absorbance measurement at 412 nm (at 37° C.). The UV absorbance was acquired every 15 minutes for 7 hours. The assay was performed in a 384-well plate using a Spark™ 10M plate reader (Tecan). Background absorbance of compounds was subtracted by measuring the absorbance at 412 nm of each compound under the same conditions without DTNB. Compounds were measured in triplicates. The data was fitted to a second order reaction equation such that the rate constant k is the slope of ln([A][B0]/[B][A0]), where [A0] and [B0] are the initial concentrations of the compound (200 μM) and TNB^2− (100 μM) respectively, and [A] and [B] are the remaining concentrations as a function of time, as determined from the spectrometric measurement. Linear regression using Prism® software was performed to fit the rate against the first four hours of measurements.
# In order to estimate the influence of the various lipophilic moieties on “warhead” reactivity [Flanagan et al., J Med Chem 2014, 57:10072-10079; Lonsdale et al., J Chem Inf Model 2017, 57:3124-3137; Dahal et al., Medchemcomm 2016, 7:864-872], the thiol reactivity of the top ten binders of the second and third generation was assessed using a high-throughput assay previously applied to the entire fragment library, as described in Resnick et al. [J Am Chem Soc 2019, 141:8951-8968]. In brief, the second-order rate constant was evaluated for a model thiol, which reflects trends in general reactivity towards thiol groups.
# [2] = 2 μM Pin1 with 2 μM test compound for 1 hour at room temperature
# [3] = 2 μM Pin1 with 2 μM test compound for 15 minutes at room temperature
# [4] = 2 μM Pin1 with 200 μM test compound for 24 hours at 4° C.
# T1 sequence (Q13526 52-163 limits assumed): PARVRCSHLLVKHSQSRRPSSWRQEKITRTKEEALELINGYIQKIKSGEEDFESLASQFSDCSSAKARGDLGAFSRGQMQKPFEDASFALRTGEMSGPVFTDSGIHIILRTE
SMILES,Labeling [%] (catalytic domain of Pin1; [2]),Labeling [%] (catalytic domain of Pin1; [3]),Labeling [%] (catalytic domain of Pin1; [4]),Reactivity Log k [1],Reactivity k [1] [M⁻¹ s⁻¹]
COCCN(C(=O)CCl)C1CCS(=O)(=O)C1 (stereo not drawn) [Pin1-324],12,–,–,−6.80,1.59e-07
O=C(CCl)N(Cc1ccccc1)C1CCS(=O)(=O)C1 (stereo not drawn) [Pin1-437],–,–,–,−6.82,1.51e-07
CC(=O)c1ccc(-n2cc(CN(C(=O)CCl)C3CCS(=O)(=O)C3)nn2)cc1 (stereo not drawn) [Compound P1-02-B04],–,62,–,−5.90,1.26e-06
O=C(CCl)N(Cc1cn(-c2cc(Br)ccc2O)nn1)C1CCS(=O)(=O)C1 (stereo not drawn) [Compound P1-02-E11],–,70,–,−5.98,1.04e-06
O=C(CCl)N(C1CCCC1)C1CCS(=O)(=O)C1 (stereo not drawn) [PCM-0102313],–,–,83,−6.97,1.07e-07
CC(C)(C)CN(C(=O)CCl)C1(C)CCS(=O)(=O)C1 (stereo not drawn) [Pin1-18],–,–,–,−7.77,1.69e-08
O=C(CCl)N(C1CCCCC1)C1CCS(=O)(=O)C1 (stereo not drawn) [PCM-0102760],–,–,100,−7.00,1e-07
NS(=O)(=O)c1ccc(-n2cc(CN(C(=O)CCl)C3CCS(=O)(=O)C3)nn2)cc1 (stereo not drawn) [Compound P1-03-G07],–,73,–,−5.86,1.37e-06
O=C(CCl)N(CC1CCCO1)C1CCS(=O)(=O)C1 (stereo not drawn) [Pin1-838],16,–,–,−6.85,1.41e-07
O=C(CCl)N(Cc1cn(-c2ccc(O)cc2)nn1)C1CCS(=O)(=O)C1 (stereo not drawn) [Compound P1-03-C04],–,72,–,−6.42,3.78e-07
O=C(CCl)N(Cc1ccccc1-c1ccccc1)C1CCS(=O)(=O)C1 (stereo not drawn) [Pin1-2-10],25,–,–,−6.89,1.3e-07
O=C(CCl)N(Cc1ccccc1-c1cccc(C(F)(F)F)c1)C1CCS(=O)(=O)C1 (stereo not drawn) [Pin1-3-8],23,–,–,−7.09,8.22e-08
O=C(CCl)N(c1ccccc1)C1CCS(=O)(=O)C1 (stereo not drawn) [PCM-0102755],–,–,83,−6.81,1.54e-07
O=C(CCl)N(Cc1ccco1)C1CCS(=O)(=O)C1 (stereo not drawn) [Pin1-128],25,–,–,−6.83,1.47e-07
"CC(C)CN(C(=O)CCl)C1CCS(=O)(=O)C1 (stereo not drawn) [Pin1-3-15, 2-chloro-N-(sulfolan-3-yl)-N-isobutylacetamide]",21,–,–,−7.11,7.77e-08
CCN(C(=O)CCl)C1CCS(=O)(=O)C1 (stereo not drawn) [PCM-0102105],0,–,85,−6.96,1.1e-07
O=C(CCl)N(Cc1cn(-c2ccc(CO)c(F)c2)nn1)C1CCS(=O)(=O)C1 (stereo not drawn) [Compound P1-01-F08],–,64,–,−5.88,1.32e-06
CC(=O)c1cccc(-n2cc(CN(C(=O)CCl)C3CCS(=O)(=O)C3)nn2)c1 (stereo not drawn) [Compound P1-03-D08],–,54,–,−5.92,1.2e-06
O=C(CCl)NC1CCS(=O)(=O)C1 (stereo not drawn) [PCM-0102138],0,–,56,−6.92,1.2e-07
CCC(C)N(C(=O)CCl)C1CCS(=O)(=O)C1 (stereo not drawn) [Pin1-053],28,–,–,−6.91,1.24e-07
"O=C(CCl)N(CC1CCCC1)C1CCS(=O)(=O)C1 (stereo not drawn) [Pin1-3-14, 2-chloro-N-(sulfolan-3-yl)-N-(cyclopentylmethyl)acetamide]",–,–,–,−7.15,7.03e-08
O=C(CCl)N(Cc1cn(-c2ccc(CO)cc2)nn1)C1CCS(=O)(=O)C1 (stereo not drawn) [Compound P1-02-H08],–,73,–,−5.88,1.32e-06
CN(C)CCN(C(=O)CCl)C1CCS(=O)(=O)C1 (stereo not drawn) [Pin1-707],0,–,–,−8.93,1.17e-09
O=C(CCl)N(Cc1cccc(Cl)c1)C1CCS(=O)(=O)C1 (stereo not drawn) [Pin1-2-11],19,–,–,−6.94,1.15e-07
COc1ccc(-n2cc(CN(C(=O)CCl)C3CCS(=O)(=O)C3)nn2)cc1 (stereo not drawn) [Compound P1-04-B02],–,69,–,−5.76,1.73e-06
O=C(CCl)N(C1CC1)C1CCS(=O)(=O)C1 (stereo not drawn) [PCM-0102832],–,–,72,−7.22,6.02e-08
O=C(CCl)N(Cc1cccc(F)c1)C1CCS(=O)(=O)C1 (stereo not drawn) [Pin1-2-5],24,–,–,−6.88,1.31e-07

# Now from value to molecule, other results behind:
Labeling [%] (catalytic domain of Pin1; [2]),Labeling [%] (catalytic domain of Pin1; [3]),Labeling [%] (catalytic domain of Pin1; [4]),SMILES,Reactivity Log k [1],Reactivity k [1] [M⁻¹ s⁻¹]
–,–,100,Cc1cccc(N(C(=O)CCl)C2C=CS(=O)(=O)C2)c1 (stereo not drawn) [PCM-0102579],–,–
–,–,100,O=C(CCl)N(c1ccccc1)C1C=CS(=O)(=O)C1 (stereo not drawn) [PCM-0102372],–,–
–,–,69,Cc1ccc(N(C(=O)CCl)C2C=CS(=O)(=O)C2)cc1C (stereo not drawn) [PCM-0103082],–,–
–,–,42,O=C(CCl)NCC1CCS(=O)(=O)C1 (stereo not drawn) [PCM-0102896],–,–
0,–,87,CC1(NC(=O)CCl)CCS(=O)(=O)C1 (stereo not drawn) [PCM-0102230],−7.05,8.87e-08
–,–,100,Cc1ccc(N(C(=O)CCl)C2C=CS(=O)(=O)C2)cc1 (stereo not drawn) [PCM-0102539],–,–
–,–,100,O=C(CCl)N(c1ccc(F)cc1)C1C=CS(=O)(=O)C1 (stereo not drawn) [PCM-0102868],–,–
